Source: patent US20120225947A1, “RETINAL NEUROPROTECTION BY ION CHANNEL BLOCKERS REGULATED BY THE SUR SUBUNIT” (ASSISTANCE PUBLIQUE - HOPITAUX DE PARIS, priority 2009, published 2012)
Read-outs that look alike come from different tables or passages of the source.

Tests used:
retinal cells [1] = type: in vivo; settings: vs BSS, P<0.0001, FIG. 10
From the text: (§1) To induce retinal neurodegeneration, the inventors injected N-methyl-D-aspartate (NMDA) into the vitreous body of rats, a recognized model of retinal excitotoxicity in which NMDA, a synthetic glutamate analog, promotes cell death (Crisanti et al., 2006). Present in excess amounts, NMDA hyperactivates neuronal excitatory receptors (NMDA receptors) which become permeable to calcium. Injection of NMDA results in an increase in intracellular calcium levels. Intracellular calcium activates enzymes (phospholipase C, endonucleases, proteases) which degrade cell structures and lead to apoptosis.
Eight-week-old male Wistar rats weighing 320-350 g were used. Rats were maintained in standard animal housing with a 12 hr day/12 hr night cycle at a temperature of 21° C.+1° C. and 55±5% humidity. […]
The amount of cell death by apoptosis and the type of cells concerned were evaluated by the number and intraretinal location of TUNEL-positive nuclei. […] The total number of apoptotic cells per retina was calculated with reference to the number of fields counted (therefore to retinal length which varies from one area of the retina to another). The mean of these field counts was calculated for an entire retinal section (composed of 7 to 14 fields) and these means, calculated for the different treatment groups, were compared by a nonparametric Mann-Whitney test with significance at p<0.05. […]

retinal cells [2] = test: NMDA-induced retinal degeneration in the rat, different routes of administration of glibenclamide (Example 2), TUNEL apoptotic cell count; type: in vivo; settings: for apoptotic cell count in retinas exposed to NMDA-induced degeneration: 18 hours, vs NMDA+DMSO, FIG. 6; for NMDA-induced retinal cell degeneration (apoptotic cells per field): intravitreal NMDA the same day
From the text: as §1
Eight-week-old male Wistar rats weighing 320-350 g were used. Rats were maintained in standard animal housing with a 12 hr day/12 hr night cycle at a temperature of 21° C.+1° C. and 55±5% humidity.
Retinal sections were permeabilized by incubation in 0.3% Triton ×100 for 20 minutes at room temperature and then incubated for 1 hour at 37° C. with 50 μL of TUNEL reaction mixture per slide (mixture obtained with 40 μL TUNEL enzyme and 360 μL TUNEL label, solution containing FITC-conjugated nucleotides).
The amount of cell death by apoptosis and the type of cells concerned were evaluated by the number and intraretinal location of TUNEL-positive nuclei. For each eye, four complete retinal sections taken from the same eye sectors were used for apoptotic cell counts. The total number of apoptotic cells per retina was calculated with reference to the number of fields counted (therefore to retinal length which varies from one area of the retina to another). The mean of these field counts was calculated for an entire retinal section (composed of 7 to 14 fields) and these means, calculated for the different treatment groups, were compared by a nonparametric Mann-Whitney test with significance at p<0.05.
Eight groups of 2 rats were used. Both eyes of each animal received identical treatment. Three routes of administration of glibenclamide were tested: intravitreal route (1 ng or 0.01 ng injected in each eye), oral route (10 mg/kg body weight) and subconjunctival route (1 ng glibenclamide injected in each eye).
The glibenclamide stock solution for the intravitreal and subconjunctival injections was obtained by diluting 4.5 mg glibenclamide in 300 μL of pure DMSO. This solution was then frozen. The glibenclamide solutions at different concentrations used for the intravitreal and subconjunctival injections were obtained by dilution in BSS® buffer (Alcon) immediately before use.
The glibenclamide solutions for oral administration (10 mg/kg) were obtained by dissolving 8 mg glibenclamide in […] DMSO and 1030 μL of water to give a 6 mg/ml glibenclamide solution, which was administered through a syringe.
Group 1: (n=2, 4 eyes), intravitreal injection of 6 μL of solution containing 45 nM NMDA and 1 ng glibenclamide.
Group 2: (n=2, 4 eyes), intravitreal injection of 6 μL of solution containing 45 nM NMDA and 0.01 ng glibenclamide.
Group 4: (n=2, 4 eyes), oral administration of glibenclamide 10 mg/kg body weight and simultaneous intravitreal injection of 6 μL of 45 nM NMDA. A 7% glucose solution was made available ad libitum to avoid possible hypoglycemia.
Group 6: (n=2, 4 eyes), subconjunctival injection of 50 μL of solution containing 1 ng glibenclamide and simultaneous intravitreal injection of 6 μL of 45 nM NMDA.
18 hours after NMDA and glibenclamide administration, rats were euthanized and the eyes were immediately dissected, fixed in 4% paraformaldehyde and 10% sucrose for 4 hours, then immersed overnight at 4° C. in 15% sucrose in phosphate buffer.
Eyes were then embedded in OCT and cryostat-sectioned (10 μm thick). Sections were labeled by the TUNEL method to detect apoptotic cell death.

## COc1ccc(Cl)cc1C(=O)NCCc1ccc(S(=O)(=O)NC(=O)NC2CCCCC2)cc1 [glibenclamide]
Retinal cells [1]; intravitreal 100 ng in BSS 5 days before intravitreal NMDA
  protection of retinal cells from NMDA-induced degeneration (apoptotic cells per field): significantly protected
Retinal cells [1]; intravitreal 100 μg in BSS 5 days before intravitreal NMDA
  protection of retinal cells from NMDA-induced degeneration (apoptotic cells per field): significantly protected
Retinal cells [2]; intravitreal 0.01 ng co-injected with 45 nM NMDA
  apoptotic cell count in retinas exposed to NMDA-induced degeneration: significant decrease
Retinal cells [2]; intravitreal 0.01 ng co-injected with NMDA, FIG. 7C
  organization of the retinal cell layers (DAPI labeling): perfectly conserved
Retinal cells [2]; intravitreal 1 ng co-injected with 45 nM NMDA
  apoptotic cell count in retinas exposed to NMDA-induced degeneration: significant decrease
Retinal cells [2]; intravitreal 1 ng co-injected with NMDA, FIG. 7B
  organization of the retinal cell layers (DAPI labeling): perfectly conserved
Retinal cells [2]; oral 10 mg/kg, vs DMSO per os, P=0.012, FIG. 8
  NMDA-induced retinal cell degeneration (apoptotic cells per field): significantly reduced
Retinal cells [2]; subconjunctival 1 ng, vs DMSO SCJ, P=0.0002, FIG. 9
  NMDA-induced retinal cell degeneration (apoptotic cells per field): significantly reduced
